Values after ≈ are worked out from the molar mass of the structure shown. Read-outs that look alike come from different tables or passages of the source.

The text below walks through data of patent publication US11202807B2, “Bacterial species” (WAGENINGEN UNIVERSITEIT, priority 2016, dated 2021).

The subject of this assay is strain Pyt^T. The assay is described as follows: Antibiotic resistance by the Etest method (MIC). The format is cell-based, Akkermansia glycaniphilus. As to conditions: for MIC: read-out: Minimal Inhibitory Concentration (MIC); for Level of resistance / sensitivity of strain Pyt^T to the antibiotic: EUCAST breakpoint table for Gram-negative anaerobes (Version 5.0). The method, then:
Antibiotic resistance was determined using the Etest method for both ampicillin and vancomycin (bioMérieux, Marcy l'Étoile, France). The minimal inhibitory concentration (MIC) was determined after 48 hours of incubation. In more detail, strain Pyt^T was grown in mucin media and after reaching stationary phase 100 ul was plated onto BHI plates supplemented with 0.5% (v/v) hog gastric mucin (Type III, Sigma), and 0.05% (w/v) of cysteine-HCL (Sigma-ALdrich). Plates were incubated for 24-48 hours under strictly anaerobic conditions. The level of resistance was determined using the European Committee on Antimicrobial Susceptibility Testing (EUCAST) breakpoint table for interpretation of MICs for Gram-negative anaerobes (Version 5.0, valid from 2015-01-01).

As for `CC1(C)S[C@@H]2[C@H](NC(=O)[C@H](N)c3ccccc3)C(=O)N2[C@H]1C(=O)O` [ampicillin], the MIC (Etest, BHI plates with 0.5% hog gastric mucin and 0.05% cysteine-HCl, strictly anaerobic, read after 48 hours) is 32 µg/mL (≈ 91.6 µM). Besides, under “Etest”, the “Level of resistance / sensitivity of strain Pyt^T to the antibiotic” value was “relatively resistant”. In the case of `O=C(N[C@H](CO)[C@H](O)c1ccc([N+](=O)[O-])cc1)C(Cl)Cl` [chloramphenicol], the “Level of resistance / sensitivity of strain Pyt^T to the antibiotic” value (Etest) was “sensitive”. Consider `Cc1ncc([N+](=O)[O-])n1CCO` [metronidazole], for which the “Level of resistance / sensitivity of strain Pyt^T to the antibiotic” value (Etest) is “sensitive”.

With `CN[C@H](CC(C)C)C(=O)N[C@H]1C(=O)N[C@@H](CC(N)=O)C(=O)N[C@H]2C(=O)N[C@H]3C(=O)N[C@H](C(=O)N[C@H](C(=O)O)c4cc(O)cc(O)c4-c4cc3ccc4O)[C@H](O)c3ccc(c(Cl)c3)Oc3cc2cc(c3O[C@@H]2O[C@H](CO)[C@@H](O)[C@H](O)[C@H]2O[C@H]2C[C@](C)(N)[C@H](O)[C@H](C)O2)Oc2ccc(cc2Cl)[C@H]1O` [vancomycin], the MIC (48 h) came to 24 µg/mL (≈ 16.6 µM). For the same compound, the “Level of resistance / sensitivity of strain Pyt^T to the antibiotic” value (Etest) was “relatively resistant”.

Turning to cholistin, the “Level of resistance / sensitivity of strain Pyt^T to the antibiotic” value (Etest) was “sensitive”.
